The values below come from PubChem BioAssay (NCI).

Among the test systems are SF-539 CNS; CAKI-1 renal; RPMI-8226 leukemia; DU-145 prostate; SK-MEL-2 melanoma; SW-620 colon; OVCAR-4 ovarian; LOX IMVI melanoma; HL-60(TB) leukemia; HS 578T breast; A498 renal.
Common to all, as to assay: NCI anticancer screen, dose series, 48 h

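48-hour exposure; five concentrations; linearly interpolated endpoints. TGI: total growth inhibition.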 A value given as a limit tells only on which side of the number the result lay.

`Cc1c2c(n(CCc3ccccc3)c1C)N(C)N=C(C#N)S2(=O)=O`: the TGI with SF-539 CNS, with CAKI-1 renal, in the experiment with RPMI-8226 leukemia, in the experiment on DU-145 prostate, in the experiment with SK-MEL-2 melanoma and with SW-620 colon was above 100 µM throughout. In the experiment with OVCAR-4 ovarian, the TGI was above 100 µM.

For the molecule `CN(CCO)c1nc(N)cc(=O)[nH]1`, the TGI with LOX IMVI melanoma, with SF-539 CNS, in the experiment with HL-60(TB) leukemia, with CAKI-1 renal, in the experiment on RPMI-8226 leukemia and in the experiment on SK-MEL-2 melanoma was above 100 µM throughout. In the experiment with SW-620 colon, this molecule showed a TGI above 100 µM.

Consider `CCOc1ccc(NC(=O)/C(=N\NC(C)(C)C)C2C(=O)Nc3ccccc3S2=O)cc1` (stereo unspecified), for which the TGI with SF-539 CNS, in the experiment with HL-60(TB) leukemia, with RPMI-8226 leukemia, in the experiment on DU-145 prostate, in the experiment on HS 578T breast and in the experiment on SK-MEL-2 melanoma was above 100 µM throughout. The TGI with SW-620 colon, with A498 renal and with OVCAR-4 ovarian was above 100 µM in each case.

Turning to `O=C(CCCNc1nc(-c2ccccc2)cs1)c1cccs1`, the TGI in the experiment with LOX IMVI melanoma, with SF-539 CNS, in the experiment on CAKI-1 renal, with RPMI-8226 leukemia, in the experiment with HS 578T breast and with SK-MEL-2 melanoma was above 100 µM in each case. Further, the TGI in the experiment on SW-620 colon and with OVCAR-4 ovarian was above 100 µM in each case.

With `Cc1ccc(N=N/C(=N/NC(=O)c2cc(Cl)ccc2C(=O)c2ccccc2)c2ccc(N(CCC#N)CCC#N)cc2C)cc1`, the TGI was 79.3 µM in the experiment on CAKI-1 renal; 96.9 µM with RPMI-8226 leukemia; 51.8 µM in the experiment with DU-145 prostate; above 100 µM with HS 578T breast; 28.2 µM in the experiment on SK-MEL-2 melanoma; above 100 µM with SW-620 colon. The molecule also returned a TGI in the experiment with OVCAR-4 ovarian of 82.4 µM.

Consider `O=C1NC(N2CCCCC2)=N/C1=C\c1cccs1`, for which the TGI in the experiment on LOX IMVI melanoma, in the experiment with SF-539 CNS, in the experiment with HL-60(TB) leukemia, with CAKI-1 renal, with RPMI-8226 leukemia and in the experiment on DU-145 prostate was above 100 µM each time. Besides, the TGI in the experiment on HS 578T breast, with SK-MEL-2 melanoma, with SW-620 colon and in the experiment with OVCAR-4 ovarian was above 100 µM throughout.

Turning to `CCN(CC)CCN1C(=O)c2c(c(-c3ccccc3)c3ccccc3c2-c2ccccc2)C1=O`, the TGI with LOX IMVI melanoma, with SF-539 CNS, in the experiment on HL-60(TB) leukemia, in the experiment with CAKI-1 renal, in the experiment on RPMI-8226 leukemia and with HS 578T breast was above 100 µM each time. The TGI in the experiment on SK-MEL-2 melanoma, with SW-620 colon, in the experiment on A498 renal and with OVCAR-4 ovarian was above 100 µM each time.

Take `CCOC(=O)c1c(C)cc(=O)n2c1[nH]c1ccccc12`: the TGI in the experiment on LOX IMVI melanoma was above 100 µM; in the experiment on SF-539 CNS, above 100 µM; in the experiment with HL-60(TB) leukemia, above 100 µM; in the experiment with CAKI-1 renal, 50.9 µM; in the experiment on DU-145 prostate, above 100 µM; with SK-MEL-2 melanoma it was above 100 µM. Besides, the TGI with SW-620 colon and with A498 renal was above 100 µM throughout.

Consider `Cc1nc(C(N)=S)sc1C(/C=C/c1ccc(Cl)c(Cl)c1)=N/NC(C)(C)C`, for which the TGI with LOX IMVI melanoma, in the experiment on SF-539 CNS, with HL-60(TB) leukemia, in the experiment with CAKI-1 renal, in the experiment on DU-145 prostate and in the experiment with HS 578T breast was above 100 µM in each case. Further, the TGI in the experiment on SK-MEL-2 melanoma, in the experiment with SW-620 colon and in the experiment with OVCAR-4 ovarian was above 100 µM in each case.

Consider `CCOC(=O)Cc1csc2[n+]1C(=O)/C(=C\c1cccc(Cl)c1Cl)S2`, for which the TGI with LOX IMVI melanoma came to 42.2 µM; with SF-539 CNS, 47.1 µM; in the experiment with HL-60(TB) leukemia, 51.5 µM; in the experiment with CAKI-1 renal it was 48.7 µM; in the experiment with DU-145 prostate, 46.3 µM; with HS 578T breast, 89.7 µM. Moreover, the TGI worked out at 36.7 µM in the experiment on SK-MEL-2 melanoma, 56.6 µM with SW-620 colon and 42.3 µM in the experiment on OVCAR-4 ovarian.

As for `Cc1oc(N)c(S(=O)(=O)c2ccc(Cl)cc2)c1C`, the TGI in the experiment on SF-539 CNS is 64.2 µM; with HL-60(TB) leukemia it was above 100 µM; in the experiment on RPMI-8226 leukemia, above 100 µM; with DU-145 prostate, above 100 µM; in the experiment with HS 578T breast, above 100 µM; in the experiment on SK-MEL-2 melanoma, above 100 µM. The TGI with SW-620 colon, with A498 renal and with OVCAR-4 ovarian was above 100 µM throughout.

For `CCOC(=O)c1sc(N/N=C2\NC(=O)/C(=C/c3ccc([N+](=O)[O-])cc3)S2)nc1C`, the TGI with LOX IMVI melanoma is 46.1 µM; with SF-539 CNS, 40.7 µM; in the experiment on HL-60(TB) leukemia it was 51.8 µM; with CAKI-1 renal, 60.5 µM; in the experiment with DU-145 prostate it was 47.4 µM; with HS 578T breast, above 100 µM. Further, the TGI in the experiment with SK-MEL-2 melanoma is 81.3 µM; with SW-620 colon it was above 100 µM; in the experiment with A498 renal, 58.5 µM; with OVCAR-4 ovarian it was above 100 µM.

On to `C/C(=N\Nc1nc2ccccc2n1C)c1cnccn1`, for which the TGI in the experiment on LOX IMVI melanoma was above 20 µM; with SF-539 CNS, above 100 µM; in the experiment with HL-60(TB) leukemia, 0.058 µM; with CAKI-1 renal it was above 100 µM; in the experiment on DU-145 prostate, above 100 µM; in the experiment with SK-MEL-2 melanoma, above 100 µM. For the same molecule, the TGI in the experiment on SW-620 colon was above 100 µM; with A498 renal, above 63.3 µM; in the experiment with OVCAR-4 ovarian, above 100 µM.

As for `C=C(C)CC1(O)C(=O)C(OCC)=C1OCC` (stereo unspecified), the TGI in the experiment on LOX IMVI melanoma, in the experiment with SF-539 CNS, in the experiment with HL-60(TB) leukemia, in the experiment on CAKI-1 renal, in the experiment with DU-145 prostate and in the experiment with HS 578T breast was above 100 µM throughout. The TGI in the experiment on SK-MEL-2 melanoma, in the experiment with SW-620 colon, in the experiment on A498 renal and in the experiment on OVCAR-4 ovarian was above 100 µM throughout.

As to `O=C(Cc1csc(N=Nc2c(O)[nH]c3ccccc23)n1)Nc1ccccc1`, the TGI with LOX IMVI melanoma was above 100 µM; in the experiment with SF-539 CNS it was 79.4 µM; in the experiment with HL-60(TB) leukemia it was 94 µM; with CAKI-1 renal it was 53.4 µM; in the experiment with DU-145 prostate, 91.5 µM; with SK-MEL-2 melanoma, above 100 µM. Also, the TGI with SW-620 colon, with A498 renal and with OVCAR-4 ovarian was above 100 µM throughout.
